Where two headings read alike, the source gives them in different places.
Biological target: SARS-CoV-2 NSP3 macrodomain (Mac1) (Severe acute respiratory syndrome coronavirus 2, UniProt P0DTD1)
Type: binding
Details: for PanDDA run, overall: Hit / PanDDA run, overall: Modeled / PanDDA run, DMSO background map: 1-BDC / PanDDA run, DMSO background map: Hit / PanDDA run, overall: Modeling comment / PanDDA run, TFA/DMSO background map: 1-BDC / PanDDA run, TFA/DMSO background map: Hit: crystal soak 10 mM; for PanDDA run, overall: Hit / PanDDA run, overall: Modeled / PanDDA run, overall: Modeling comment: P43 crystal form; for Total number of conformations: ligand conformations modeled in the crystal structure; for 2*(1-BDC) (%): occupancy estimate from PanDDA
[1] = PanDDA background density correction factor
[2] = TRUE = crystal structure with ligand obtained
[3] = refined crystallographic occupancy
[4] = site of ligand in X-ray crystal structure
[5] = ligand-bound crystal structure obtained (TRUE)
[6] = site occupied in X-ray crystal structure

SMILES | Occupancy difference (refined_occupancy - 2*(1-BDC)) | 1-BDC [1] | X-ray crystal structure [2] | PanDDA run, overall: Hit | PanDDA run, overall: Modeled | PanDDA run, DMSO background map: 1-BDC | PanDDA run, DMSO background map: Hit | Total number of conformations | 2*(1-BDC) (%) | Refined ligand occupancy (%) [3] | Binding site [4] | 1-BDC (PanDDA background density correction, 1-BDC) | Refined ligand occupancy (%) (crystallographic refinement) | X-ray crystal structure [5] | Binding site [6] | PanDDA run, overall: Modeling comment | PanDDA run, TFA/DMSO background map: 1-BDC | PanDDA run, TFA/DMSO background map: Hit
OCC(Nc1ncnc2[nH]ccc12)c1ccco1 (centres unmarked) [AVI-3659] | 0 | 0.16 | TRUE | TRUE | TRUE | 0.16 | TRUE | 1 | 32% | 32% | Adenosine |  |  |  |  |  |  | 
OCC(CC1CCCO1)Nc1ncnc2[nH]ccc12 (centres unmarked) [AVI-3660] | 0 | 0.23 | TRUE | TRUE | TRUE | 0.23 | TRUE | 1 | 46% | 46% | Adenosine |  |  |  |  |  |  | 
OC1CCN(c2ncnc3[nH]ccc23)C1 (centres unmarked) [AVI-3661] |  |  |  | TRUE | TRUE | 0.15 | TRUE |  | 30% |  |  | 0.15 | 40% | TRUE | Adenosine |  |  | 
OCC(CC1CC1)Nc1ncnc2[nH]ccc12 (centres unmarked) [AVI-3662] | 0 | 0.14 | TRUE | TRUE | TRUE | 0.14 | TRUE | 1 | 28% | 28% | Adenosine |  |  |  |  | Distal site, weak density, not modeled |  | 
OCC(CC1CCOC1)Nc1ncnc2[nH]ccc12 (centres unmarked) [AVI-3665] | 0 | 0.17 | TRUE | TRUE | TRUE | 0.17 | TRUE | 1 | 34% | 34% | Adenosine |  |  |  |  |  |  | 
CCC(Nc1ncnc2[nH]ccc12)C(C)(C)O (centres unmarked) [AVI-3667] | 0 | 0.14 | TRUE | TRUE | TRUE | 0.14 | TRUE | 1 | 28% | 28% | Adenosine |  |  |  |  |  |  | 
CC(C)CCC(CO)Nc1ncnc2[nH]ccc12.O=C(O)C(F)(F)F (centres unmarked) [AVI-3668] |  |  |  | TRUE |  | 0.15 | TRUE |  |  |  |  |  |  |  |  | Weak density, not modeled | 0.09 | TRUE
OCC(Cc1nccs1)Nc1ncnc2[nH]ccc12 (centres unmarked) [AVI-3673] | 0 | 0.19 | TRUE | TRUE | TRUE | 0.19 | TRUE | 1 | 38% | 38% | Adenosine |  |  |  |  |  |  | 
Cc1ccccc1CC(CO)Nc1ncnc2[nH]ccc12 (centres unmarked) [AVI-3674] | 0 | 0.19 | TRUE | TRUE | TRUE | 0.19 | TRUE | 1 | 38% | 38% | Adenosine |  |  |  |  |  |  | 
O=C(O)C(F)(F)F.OCC(CC1CCOCC1)Nc1ncnc2[nH]ccc12 (centres unmarked) [AVI-3676] |  |  |  |  |  |  |  |  |  |  |  |  |  |  |  | TFA only |  | 
OCC(Nc1ncnc2[nH]ccc12)C1CCOC1 (centres unmarked) [AVI-3679] | 0 | 0.16 | TRUE | TRUE | TRUE | 0.16 | TRUE | 1 | 32% | 32% | Adenosine |  |  |  |  |  |  | 
O=C(O)C(F)(F)F.OCC12CC(CN1c1ncnc3[nH]ccc13)C2 [AVI-3681] | -14 | 0.22 |  | TRUE | TRUE | 0.22 | TRUE | 1 | 44% | 30% |  |  |  | TRUE | Adenosine | Distal site, weak density, not modeled |  | 
Cc1ccc(CC(CO)Nc2ncnc3[nH]ccc23)cc1 (centres unmarked) [AVI-3683] | 20 | 0.15 | TRUE | TRUE | TRUE | 0.15 | TRUE | 2 | 30% | 50% | Adenosine |  |  |  |  |  |  | 
Cc1ccc(CC(CO)Nc2ncnc3[nH]ccc23)cc1C (centres unmarked) [AVI-3684] | 20 | 0.15 | TRUE | TRUE | TRUE | 0.15 | TRUE | 2 | 30% | 50% | Adenosine |  |  |  |  |  |  | 
OCC1CCCN1c1ncnc2[nH]ccc12 (centres unmarked) [AVI-3685] | 20 | 0.25 |  | TRUE | TRUE | 0.25 | TRUE | 1 | 50% | 70% |  |  |  | TRUE | Adenosine |  |  | 
OCC(Cc1ccc(I)cc1)Nc1ncnc2[nH]ccc12 (centres unmarked) [AVI-3686] | 0 | 0.2 | TRUE | TRUE | TRUE | 0.2 | TRUE | 2 | 40% | 40% | Adenosine |  |  |  |  |  |  | 
O=C(O)C(F)(F)F.OCC(Nc1ncnc2[nH]ccc12)C(O)C1CCCCC1 (centres unmarked) [AVI-3687] |  |  |  | TRUE |  | 0.15 | TRUE |  |  |  |  |  |  |  |  | Weak density, not modeled | 0.08 | TRUE
